The values that follow are results of earlier work, collected in patent US20140106406A1, “GENE CLUSTER FOR THE PRODUCTION OF GOUGEROTIN, GOUGEROTIN ANALOGUES, AND PRECURSORS THEREOF” (Bayer Cropscience LP, priority 2012, published 2014).

The structures appear in SMILES notation.

The subject of data set [1] is powdery mildew. Conditions: against powdery mildew.
The subject of data set [2] is parasites on animals, such as pin worm.
Data set [3] concerns gram-positive, gram-negative bacteria and tubercule bacillus.

For the molecule `NC(N)=NCC(O)CC(O)(C(=O)O)[C@H]1O[C@@H](n2cc(CO)c(N)nc2=O)C=C[C@@H]1NC(=O)[C@@H](N)CO` (stereo partly drawn) [antibiotic B-98891], in data set [1], the antifungal activity result is recorded as “antifungal activity”. In the case of `CNCC(=O)NC(CO)C(=O)NC1C(C(N)=O)OC(n2ccc(N)nc2=O)C(O)C1O` (stereo not drawn) [gougerotin], the parasiticidal action result in data set [2] was “parasiticidal action”. Besides, the antibacterial activity entry in data set [3] is “weak antibacterial activity”.
